Experimental data reported in ChEMBL document CHEMBL1201862, “PubChem BioAssay data set” (2004).
Calls of active or inactive are those of the source.

Experiments:
[1] = molecular target: T1, Tyrosine-protein phosphatase non-receptor type 7 (Homo sapiens, UniProt P35236); type: functional
T1 sequence (P35236 whole entry): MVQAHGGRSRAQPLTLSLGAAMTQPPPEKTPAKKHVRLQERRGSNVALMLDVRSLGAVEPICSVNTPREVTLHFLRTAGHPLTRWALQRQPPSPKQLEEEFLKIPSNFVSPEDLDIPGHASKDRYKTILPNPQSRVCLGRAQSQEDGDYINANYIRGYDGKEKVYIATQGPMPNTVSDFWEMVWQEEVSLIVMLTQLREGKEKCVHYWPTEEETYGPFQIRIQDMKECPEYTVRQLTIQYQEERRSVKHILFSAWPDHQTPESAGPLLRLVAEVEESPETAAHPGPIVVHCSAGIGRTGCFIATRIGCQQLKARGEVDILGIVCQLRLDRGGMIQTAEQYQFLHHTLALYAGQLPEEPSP

[2] = molecular target: Small ubiquitin-related modifier 2 (Homo sapiens, UniProt P61956); assay: SUMO2–SIM peptide binding inhibitors, dose response, selectivity assay for SUMO1 interaction inhibitor project, biochemical, fluorescence polarization, uHTS hits (AID 624385); type: functional; conditions: read-out: IC50_Mean
Sequence of Small ubiquitin-related modifier 2 (P61956 whole entry): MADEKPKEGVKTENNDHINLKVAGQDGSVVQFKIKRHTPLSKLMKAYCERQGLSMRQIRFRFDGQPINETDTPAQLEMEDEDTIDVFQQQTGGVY

Hexokinase HKDC1 = molecular target: T2, Hexokinase HKDC1 (Homo sapiens, UniProt Q2TB90); assay: HKDC1 hexokinase inhibitors, dose response, biochemical, W721R variant (AID 504729); type: functional
T2 sequence (Q2TB90 whole entry): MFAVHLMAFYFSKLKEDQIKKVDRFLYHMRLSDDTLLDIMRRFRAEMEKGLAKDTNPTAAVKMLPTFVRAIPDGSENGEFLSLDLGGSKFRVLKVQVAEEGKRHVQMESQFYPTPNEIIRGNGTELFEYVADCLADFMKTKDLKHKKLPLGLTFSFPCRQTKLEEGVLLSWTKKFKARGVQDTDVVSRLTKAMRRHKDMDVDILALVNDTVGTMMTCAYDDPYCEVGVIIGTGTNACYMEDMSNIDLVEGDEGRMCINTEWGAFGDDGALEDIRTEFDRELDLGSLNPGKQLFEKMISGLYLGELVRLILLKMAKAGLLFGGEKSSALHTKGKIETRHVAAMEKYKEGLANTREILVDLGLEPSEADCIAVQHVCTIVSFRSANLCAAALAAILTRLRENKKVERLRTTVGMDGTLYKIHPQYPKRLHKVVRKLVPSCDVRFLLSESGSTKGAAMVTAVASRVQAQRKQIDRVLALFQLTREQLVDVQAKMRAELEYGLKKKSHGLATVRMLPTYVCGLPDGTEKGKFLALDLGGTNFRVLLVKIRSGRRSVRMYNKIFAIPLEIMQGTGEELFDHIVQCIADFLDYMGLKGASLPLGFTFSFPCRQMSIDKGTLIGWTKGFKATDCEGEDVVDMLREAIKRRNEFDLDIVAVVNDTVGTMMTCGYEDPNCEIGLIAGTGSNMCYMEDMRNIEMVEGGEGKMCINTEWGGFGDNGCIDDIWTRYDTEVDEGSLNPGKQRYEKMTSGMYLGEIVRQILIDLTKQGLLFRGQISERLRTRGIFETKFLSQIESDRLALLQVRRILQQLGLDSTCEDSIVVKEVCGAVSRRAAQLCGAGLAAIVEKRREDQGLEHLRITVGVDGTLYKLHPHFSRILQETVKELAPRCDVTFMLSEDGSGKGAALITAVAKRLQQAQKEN

INS1 = assay: beta cell apoptosis inhibitors, cytokine rescue, dose response, luminescence, retest (AID 449756); type: functional, cell-based; conditions: Rattus norvegicus;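 also: cell death triggered by IL-1 beta plus TNF-alpha plus IFN-gamma mixture; protective hits raise ATP signal compared with cytokine alone wells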
Protein RecA = molecular target: T3, Protein RecA (Mycobacterium tuberculosis, UniProt P9WHJ3); assay: Fluorescence Cell-Free Homogeneous Dose Retest to Identify Inhibitors of RecA-Intein Splicing Activity. [Related pubchem assays (depositor defined):AID2097, AID2223, AID489010, AID492950]; type: functional
T3 sequence (P9WHJ3 whole entry): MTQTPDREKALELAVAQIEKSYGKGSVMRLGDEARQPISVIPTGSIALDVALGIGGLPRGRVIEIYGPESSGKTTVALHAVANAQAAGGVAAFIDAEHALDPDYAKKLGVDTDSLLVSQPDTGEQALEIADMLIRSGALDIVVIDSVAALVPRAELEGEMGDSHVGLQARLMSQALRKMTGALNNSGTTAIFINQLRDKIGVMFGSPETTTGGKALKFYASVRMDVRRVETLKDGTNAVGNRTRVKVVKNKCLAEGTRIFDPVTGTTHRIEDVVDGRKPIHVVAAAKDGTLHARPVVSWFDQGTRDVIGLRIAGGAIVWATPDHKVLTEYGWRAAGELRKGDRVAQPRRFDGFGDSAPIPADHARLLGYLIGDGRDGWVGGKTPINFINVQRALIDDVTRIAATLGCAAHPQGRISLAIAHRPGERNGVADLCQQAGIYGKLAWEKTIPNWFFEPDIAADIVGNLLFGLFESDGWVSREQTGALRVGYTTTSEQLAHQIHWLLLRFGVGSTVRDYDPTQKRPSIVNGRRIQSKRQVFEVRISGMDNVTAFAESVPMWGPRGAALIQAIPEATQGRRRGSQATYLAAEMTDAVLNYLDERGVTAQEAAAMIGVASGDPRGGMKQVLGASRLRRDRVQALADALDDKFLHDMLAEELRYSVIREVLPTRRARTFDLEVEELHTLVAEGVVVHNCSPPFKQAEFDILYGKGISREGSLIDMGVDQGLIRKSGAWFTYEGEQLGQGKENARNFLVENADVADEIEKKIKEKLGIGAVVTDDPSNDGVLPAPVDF

[3] = molecular target: T4, Sentrin-specific protease 8 (Homo sapiens, UniProt Q96LD8); type: functional
T4 sequence (Q96LD8 whole entry): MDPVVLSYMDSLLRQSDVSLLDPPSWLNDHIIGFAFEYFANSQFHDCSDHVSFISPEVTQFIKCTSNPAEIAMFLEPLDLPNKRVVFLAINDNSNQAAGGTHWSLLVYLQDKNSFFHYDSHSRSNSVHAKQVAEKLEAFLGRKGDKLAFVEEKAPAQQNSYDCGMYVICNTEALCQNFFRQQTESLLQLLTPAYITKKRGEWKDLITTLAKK

[4] = molecular target: T4, Sentrin-specific protease 8; type: functional; remark: listed apart in the source

How did the IC50 [1] turn out when `Nc1ccc2nc3c(O)nc(S)nc3nc2c1` was run?
Its IC50 is > 79.4 µM (inactive).

And the IC50 [2]?
The IC50 was 55.2 µM (inactive).

With `Cc1oc2c(c1C(=O)c1ccccc1)C(=O)C(=O)c1ccccc1-2` as the molecule, how does the IC50 (Hexokinase HKDC1) read?
Its IC50 is 14.5 µM (active).

And the AC50 (INS1)?
Its AC50 is 2.71 µM (active).

How did the EC50 (Protein RecA) turn out when `O=C1CCCC2=C1C1(O)C(=O)c3ccccc3C1(O)O2` (centres undefined) was run?
The EC50 was 11.5 µM (active).

And the IC50 [3]?
Its IC50 is 2.52 µM (active).

What about the IC50 [4] of the same molecule?
Its IC50 is 6.65 µM (active).

Which IC50 [2] does the source give for `CSc1ccc(C=NNc2ccc(S(=O)(=O)Nc3ccccc3C(=O)O)cc2[N+](=O)[O-])cc1` here?
The IC50 was 2.38 µM (active).

Which results are given for `O=C1C(Cl)=C(NCCN2CCCCC2)C(=O)c2ccccc21`?
EC50 (Protein RecA): 7.31 µM (active); AC50 (INS1): 4.41 µM (active)

`O=C(O)COc1ccc(/C=N/NC(=O)c2ccc(-c3csc(Nc4ccc(Cl)cc4)n3)cc2)cc1` was tested. Which IC50 [1] did it give?
Its IC50 is < 1.24 µM (active).

And the IC50 (Hexokinase HKDC1)?
The IC50 was 33 µM (inactive).

Which results are given for `COc1cc(NCCCNC(C)C)c2nccc(C)c2c1`?
IC50 [3]: 3.89 µM (active); IC50 [4]: 1.09 µM (active)
